Measured values as given in the NIST ThermoML archive (doi:10.1016/j.jct.2018.05.004).
± gives the expanded uncertainty stated by the source.

Experiment: mn = molality of the nth substance listed, in mol/kg
Settings: 100 kPa, Liquid; for speed of sound: Frequency=3 MHz, Single path-length method; for mass density: Vibrating tube method

Compound `OC[C@H]1O[C@@](CO)(O[C@H]2O[C@H](CO)[C@@H](O)[C@H](O)[C@H]2O)[C@@H](O)[C@@H]1O` [D-sucrose] + O has a speed of sound (288.15 K, m1 = 0.1002) of 1476.3 ± 16 m/s, a speed of sound (288.15 K, m1 = 0.2007) of 1486.2 ± 16 m/s and a speed of sound (288.15 K, m1 = 0.3011) of 1496 ± 16 m/s. It also gave a speed of sound (288.15 K, m1 = 0.4034) of 1506 ± 16 m/s, a speed of sound (288.15 K, m1 = 0.4996) of 1515.3 ± 16 m/s and a speed of sound (288.15 K, m1 = 0.6018) of 1525.2 ± 16 m/s. For the same compound, the speed of sound (288.15 K, m1 = 0.7022) was 1534.9 ± 16 m/s, the speed of sound (288.15 K, m1 = 0.7978) was 1543.9 ± 16 m/s and the speed of sound (288.15 K, m1 = 0.8955) was 1552.9 ± 16 m/s. The speed of sound (288.15 K, m1 = 0.9969) was 1562.2 ± 16 m/s, the mass density (288.15 K, m1 = 0.1002) was 1012.01 ± 8 kg/m3 and the mass density (288.15 K, m1 = 0.2007) was 1024.37 ± 8 kg/m3. The mass density (288.15 K, m1 = 0.3011) was 1036.19 ± 8 kg/m3, the mass density (288.15 K, m1 = 0.4034) was 1047.72 ± 8.1 kg/m3 and the mass density (288.15 K, m1 = 0.4996) was 1058.12 ± 8.1 kg/m3. It also gave a mass density (288.15 K, m1 = 0.6018) of 1068.73 ± 8.1 kg/m3, a mass density (288.15 K, m1 = 0.7022) of 1078.71 ± 8.1 kg/m3 and a mass density (288.15 K, m1 = 0.7978) of 1087.87 ± 8.1 kg/m3. The mass density (288.15 K, m1 = 0.8955) was 1096.86 ± 8.2 kg/m3, the mass density (288.15 K, m1 = 0.9969) was 1105.83 ± 8.2 kg/m3 and the speed of sound (298.15 K, m1 = 0.1002) was 1506 ± 16 m/s. The speed of sound (298.15 K, m1 = 0.2007) was 1515 ± 16 m/s, the speed of sound (298.15 K, m1 = 0.3011) was 1524 ± 16 m/s and the speed of sound (298.15 K, m1 = 0.4034) was 1533.2 ± 16 m/s. The speed of sound (298.15 K, m1 = 0.4996) was 1541.7 ± 16 m/s, the speed of sound (298.15 K, m1 = 0.6018) was 1550.6 ± 16 m/s and the speed of sound (298.15 K, m1 = 0.7022) was 1559.3 ± 16 m/s. For the same compound, the speed of sound (298.15 K, m1 = 0.7978) was 1567.4 ± 16 m/s, the speed of sound (298.15 K, m1 = 0.8955) was 1575.6 ± 16 m/s and the speed of sound (298.15 K, m1 = 0.9969) was 1583.8 ± 16 m/s. For the same compound, the mass density (298.15 K, m1 = 0.1002) was 1009.81 ± 8 kg/m3, the mass density (298.15 K, m1 = 0.2007) was 1022.04 ± 8 kg/m3 and the mass density (298.15 K, m1 = 0.3011) was 1033.73 ± 8 kg/m3. The mass density (298.15 K, m1 = 0.4034) was 1045.13 ± 8 kg/m3, the mass density (298.15 K, m1 = 0.4996) was 1055.43 ± 8.1 kg/m3 and the mass density (298.15 K, m1 = 0.6018) was 1065.92 ± 8.1 kg/m3. For the same compound, the mass density (298.15 K, m1 = 0.7022) was 1075.81 ± 8.1 kg/m3, the mass density (298.15 K, m1 = 0.7978) was 1084.86 ± 8.1 kg/m3 and the mass density (298.15 K, m1 = 0.8955) was 1093.77 ± 8.2 kg/m3. It also gave a mass density (298.15 K, m1 = 0.9969) of 1102.65 ± 8.2 kg/m3, a speed of sound (308.15 K, m1 = 0.1002) of 1528.2 ± 16 m/s and a speed of sound (308.15 K, m1 = 0.2007) of 1536.5 ± 16 m/s. It also gave a speed of sound (308.15 K, m1 = 0.3011) of 1544.7 ± 16 m/s, a speed of sound (308.15 K, m1 = 0.4034) of 1553.1 ± 16 m/s and a speed of sound (308.15 K, m1 = 0.4996) of 1561 ± 16 m/s. The speed of sound (308.15 K, m1 = 0.6018) was 1569.3 ± 16 m/s, the speed of sound (308.15 K, m1 = 0.7022) was 1577.2 ± 16 m/s and the speed of sound (308.15 K, m1 = 0.7978) was 1584.8 ± 16 m/s. The speed of sound (308.15 K, m1 = 0.8955) was 1592.3 ± 16 m/s, the speed of sound (308.15 K, m1 = 0.9969) was 1600.1 ± 16 m/s and the mass density (308.15 K, m1 = 0.1002) was 1006.68 ± 8 kg/m3. The mass density (308.15 K, m1 = 0.2007) was 1018.8 ± 8 kg/m3, the mass density (308.15 K, m1 = 0.3011) was 1030.39 ± 8 kg/m3 and the mass density (308.15 K, m1 = 0.4034) was 1041.69 ± 8 kg/m3. The mass density (308.15 K, m1 = 0.4996) was 1051.89 ± 8.1 kg/m3, the mass density (308.15 K, m1 = 0.6018) was 1062.29 ± 8.1 kg/m3 and the mass density (308.15 K, m1 = 0.7022) was 1072.09 ± 8.1 kg/m3. For the same compound, the mass density (308.15 K, m1 = 0.7978) was 1081.07 ± 8.1 kg/m3, the mass density (308.15 K, m1 = 0.8955) was 1089.9 ± 8.2 kg/m3 and the mass density (308.15 K, m1 = 0.9969) was 1098.71 ± 8.2 kg/m3. It also gave a speed of sound (318.15 K, m1 = 0.1002) of 1544 ± 16 m/s, a speed of sound (318.15 K, m1 = 0.2007) of 1552.6 ± 16 m/s and a speed of sound (318.15 K, m1 = 0.3011) of 1560.1 ± 16 m/s. It also gave a speed of sound (318.15 K, m1 = 0.4034) of 1567.7 ± 16 m/s, a speed of sound (318.15 K, m1 = 0.4996) of 1576 ± 16 m/s and a speed of sound (318.15 K, m1 = 0.6018) of 1584.2 ± 16 m/s. It also gave a speed of sound (318.15 K, m1 = 0.7022) of 1592 ± 16 m/s, a speed of sound (318.15 K, m1 = 0.7978) of 1599.6 ± 16 m/s and a speed of sound (318.15 K, m1 = 0.8955) of 1606.7 ± 16 m/s. The speed of sound (318.15 K, m1 = 0.9969) was 1614.4 ± 16 m/s, the mass density (318.15 K, m1 = 0.1002) was 1002.77 ± 8 kg/m3 and the mass density (318.15 K, m1 = 0.2007) was 1014.82 ± 8 kg/m3. It also gave a mass density (318.15 K, m1 = 0.3011) of 1026.34 ± 8 kg/m3, a mass density (318.15 K, m1 = 0.4034) of 1037.58 ± 8 kg/m3 and a mass density (318.15 K, m1 = 0.4996) of 1047.73 ± 8.1 kg/m3. The mass density (318.15 K, m1 = 0.6018) was 1058.07 ± 8.1 kg/m3, the mass density (318.15 K, m1 = 0.7022) was 1067.82 ± 8.1 kg/m3 and the mass density (318.15 K, m1 = 0.7978) was 1076.72 ± 8.1 kg/m3. For the same compound, the mass density (318.15 K, m1 = 0.8955) was 1085.49 ± 8.2 kg/m3 and the mass density (318.15 K, m1 = 0.9969) was 1094.23 ± 8.2 kg/m3.
`O=C([O-])CC(O)(CC(=O)[O-])C(=O)[O-].[NH4+].[NH4+].[NH4+]` [ammonium 2-hydroxypropane-1,2,3-tricarboxylate] + O gave a speed of sound (288.15 K, m1 = 0.2) of 1503.1 ± 16 m/s, a speed of sound (288.15 K, m1 = 0.4) of 1540.4 ± 16 m/s and a speed of sound (288.15 K, m1 = 0.6) of 1578.7 ± 16 m/s. The mass density (288.15 K, m1 = 0.2) was 1021.37 ± 8 kg/m3, the mass density (288.15 K, m1 = 0.4) was 1043.45 ± 8 kg/m3 and the mass density (288.15 K, m1 = 0.6) was 1063.76 ± 8.1 kg/m3. It also gave a speed of sound (298.15 K, m1 = 0.2) of 1532 ± 16 m/s, a speed of sound (298.15 K, m1 = 0.4) of 1567.3 ± 16 m/s and a speed of sound (298.15 K, m1 = 0.6) of 1603.6 ± 16 m/s. For the same compound, the mass density (298.15 K, m1 = 0.2) was 1019 ± 8 kg/m3, the mass density (298.15 K, m1 = 0.4) was 1040.15 ± 8 kg/m3 and the mass density (298.15 K, m1 = 0.6) was 1060.41 ± 8.1 kg/m3. It also gave a speed of sound (308.15 K, m1 = 0.2) of 1553.5 ± 16 m/s, a speed of sound (308.15 K, m1 = 0.4) of 1587.8 ± 16 m/s and a speed of sound (308.15 K, m1 = 0.6) of 1621.9 ± 16 m/s. It also gave a mass density (308.15 K, m1 = 0.2) of 1015.71 ± 8 kg/m3, a mass density (308.15 K, m1 = 0.4) of 1037.34 ± 8 kg/m3 and a mass density (308.15 K, m1 = 0.6) of 1057.21 ± 8.1 kg/m3. The speed of sound (318.15 K, m1 = 0.2) was 1569 ± 16 m/s, the speed of sound (318.15 K, m1 = 0.4) was 1602.3 ± 16 m/s and the speed of sound (318.15 K, m1 = 0.6) was 1635.4 ± 16 m/s. For the same compound, the mass density (318.15 K, m1 = 0.2) was 1011.75 ± 8 kg/m3, the mass density (318.15 K, m1 = 0.4) was 1033.31 ± 8 kg/m3 and the mass density (318.15 K, m1 = 0.6) was 1052.93 ± 8.1 kg/m3.
For `O=C([O-])CC(O)(CC(=O)[O-])C(=O)[O-].[Li+].[Li+].[Li+]` [trilithium citrate] + O, the speed of sound (288.15 K, m1 = 0.2) was 1509.2 ± 16 m/s, the speed of sound (288.15 K, m1 = 0.4) was 1548 ± 16 m/s and the speed of sound (288.15 K, m1 = 0.6) was 1589.2 ± 16 m/s. It also gave a mass density (288.15 K, m1 = 0.2) of 1027.21 ± 8 kg/m3, a mass density (288.15 K, m1 = 0.4) of 1052.75 ± 8.1 kg/m3 and a mass density (288.15 K, m1 = 0.6) of 1078.28 ± 8.1 kg/m3. It also gave a speed of sound (298.15 K, m1 = 0.2) of 1535.8 ± 16 m/s, a speed of sound (298.15 K, m1 = 0.4) of 1572.6 ± 16 m/s and a speed of sound (298.15 K, m1 = 0.6) of 1610.5 ± 16 m/s. It also gave a mass density (298.15 K, m1 = 0.2) of 1025.32 ± 8 kg/m3, a mass density (298.15 K, m1 = 0.4) of 1050.41 ± 8.1 kg/m3 and a mass density (298.15 K, m1 = 0.6) of 1075.38 ± 8.1 kg/m3. The speed of sound (308.15 K, m1 = 0.2) was 1556 ± 16 m/s, the speed of sound (308.15 K, m1 = 0.4) was 1590.3 ± 16 m/s and the speed of sound (308.15 K, m1 = 0.6) was 1625.9 ± 16 m/s. It also gave a mass density (308.15 K, m1 = 0.2) of 1021.67 ± 8 kg/m3, a mass density (308.15 K, m1 = 0.4) of 1046.92 ± 8.1 kg/m3 and a mass density (308.15 K, m1 = 0.6) of 1071.84 ± 8.1 kg/m3. For the same compound, the speed of sound (318.15 K, m1 = 0.2) was 1570.2 ± 16 m/s, the speed of sound (318.15 K, m1 = 0.4) was 1602.4 ± 16 m/s and the speed of sound (318.15 K, m1 = 0.6) was 1635.7 ± 16 m/s. It also gave a mass density (318.15 K, m1 = 0.2) of 1017.79 ± 8 kg/m3, a mass density (318.15 K, m1 = 0.4) of 1042.96 ± 8.1 kg/m3 and a mass density (318.15 K, m1 = 0.6) of 1068 ± 8.1 kg/m3.
